# From patent US20140370079A1, “METHOD FOR TARGETING VASCULAR RHOJ FOR INHIBITING TUMOR ANGIOGENESIS” (Korea Advanced Institute of Science and Technology (KAIST), priority 2013, published 2014)
# What was measured:
# HUVECs [1] = test: In vitro Matrigel tube formation assay; type: cell-based, human; conditions: siJ-ECs (RhoJ knockdown) with CA4P 20 nM, 12 hr; compared to single treatment
# Procedure: (§1) HUVECs were purchased from Lonza, cultured in endothelial growth medium (EGM-2, Lonza) and incubated in a humidified atmosphere with 5% CO2 at 37° C. The cells used were between passages 3 to 8. Transfections of siRNA duplexes into HUVECs were performed using Lipofectamine® RNAiMAX (Invitrogen) at a final concentration of 40 nM according to the manufacturer's protocol.
# For matrigel tube formation assay, growth factor reduced Matrigel (BD bioscience) was thawed overnight at 4° C. The Matrigel was allowed to solidify on a 4-well culture dishes at 37° C. for 30 min. Cells were harvested and seeded at a density of 2×10^4 cells/well in growth media. Cells were then incubated at 37° C. for a further 12 hr. Tube formation was observed by taking pictures using a Leica DM IL microscope. The matrigel assays were quantified by counting the number of nodes and tubules from five different fields for each condition.
# HUVECs [2] = test: In vitro vascular permeability assay (FITC-dextran across EC monolayer); type: cell-based, human; conditions: siJ-ECs treated with CA4P (20 nM) compared to siC-ECs treated with PBS
# Procedure: as §1
# For in vitro vascular permeability assay, HUVECs were cultured on collagen-coated 1.0 μm-size pore insert (Millipore). After starvation for 12 hr, the cells were treated with or without VEGF (50 ng/ml) or CA4P (20 nM) for 2 hr and was then incubated with 70 kDa FITC-Dextran for 20 min. Each solution in plate wells were read with a Victor X2 multilabel plate reader.
# [3] = system: RhoA-ROCK signaling pathway; test: RhoA activity, ROCK activity and MLC phosphorylation in HUVECs; type: cell-based, human
# Procedure: RhoA activities were determined using a RhoA activation assay kit (BK036, Cytoskeleton). […] Cells were lysed and the cell lysates were incubated with the rhotekin beads (50 μg/sample) for 1 h at 4° C., washed two times, and eluted with Laemmli sample buffer. Bound RhoA, which is an active form of RhoA, was analyzed by SDS-PAGE separation followed by immunoblotting with an anti-RhoA antibody (ARH03, Cyto skeleton). The amount of total RhoA was also analyzed by immunoblotting using the same antibody in order to normalize the relative activity of RhoA.
# ROCK activities were determined using a ROCK activity assay kit (CSA001, Millipore). HUVECs were lysed and cell lysates were incubated for 1 hr at room temperature in 96-well plates pre-coated with recombinant MYPT1, which contain Thr696 residue that can be phosphorylated by active ROCK. The plates were washed and incubated with anti-phospho-MYPT1 (Thr696) antibody followed by incubation with HRP-conjugated secondary antibody and HRP substrate reagent. The relative amount of active ROCK was measured by a microplate reader at 450 nm (Bio-Rad).
# At the indicated time, tumor tissues or cultured HUVECs were homogenized in ice-cold lysis buffer containing a protease inhibitor cocktail (Roche). […] Chemiluminescent signals were developed with HRP substrate (Millipore) and detected with a LAS-1000 mini (Fuji film).
# LLC tumor [4] = test: LLC implantation tumor model, tumor growth; type: in vivo, mouse; conditions: for maintenance of tumor growth response to CA4P: CA4P 50 mg/kg; for decrease of LLC tumor growth: RhoJ-WT mice
# Procedure: (§2) LLC and B16F10 melanoma cells were obtained from American Type Culture Collection. To generate implantation tumor models, suspensions of tumor cells (1×10^6 cells in 100 μl) were SC injected into the dorsal flank of 8 to 10 weeks old mice. Tumor volumes were measured at given time points. Tumor volume was calculated according to the formula, 0.5×A×B^2, where A is the largest diameter of a tumor and B is its perpendicular diameter. Tumor growth rate is defined as increased tumor volume relative to 2 days before. Indicated days later, the mice were anesthetized and tissues were harvested for further analyses. Tamoxifen (4 mg/kg, 4 times every 2 days, Sigma-Aldrich) was IP injected into Cdh5(PAC)-Cre^ERT2;Rhor^fl/fl mice starting from the day before tumor implantation or after the tumor volume had exceeded 300 mm^3. Cisplatin (10 mg/kg, every 7 days, Sigma-Aldrich) is IP injected for cytotoxic chemotherapy when tumor volume exceeded 100 mm^3. VEGF-trap (25 mg/kg, indicated schedule) is SC injected as an AIA therapy. CA4P (50 mg/kg, every 2 days, Sigma-Aldrich) was IP injected as a VDA therapy. As a control, equal amounts of Fc or PBS was injected in the same manner. To knock down RhoJ in vivo, control or RhoJ siRNA (2 mg/kg, indicated schedule), which were encapsulated into aptEDB-LS complexes, were IV injected into tumor-bearing mice.
# LLC tumor vessels = test: LLC tumor model, CD31+ tumor vessel density; type: in vivo, mouse; conditions: for reduction of vascular density, intratumoral region / reduction of vascular density, peritumoral region: CA4P 50 mg/kg, 6 days after first treatment
# Procedure: as §2
# For hematoxylin and eosin (H&E) staining, tumors and indicated organs were fixed overnight in 4% paraformaldehyde (PFA). After tissue processing using standard procedures, samples were embedded in paraffin and cut into 3-1 μm sections followed by H&E staining. For immunofluorescence studies, samples were fixed in 1% PFA, dehydrated in 20% sucrose solution overnight, and embedded in tissue freezing medium (Leica). Frozen blocks were cut into 50-1 μm sections. Samples were blocked with 5% goat (or donkey) serum in PBST (0.03% Trition X-100 in PBS) and then incubated for 3 hr at room temperature (RT) with the following primary antibodies: anti-GFP (rabbit polyclonal, Millipore), anti-CD31 (hamster, clone 2H8, Millipore), anti-RhoJ (mouse, clone 1E4, Novus), anti-RhoJ (mouse, clone 1D7, OriGene), FITC-conjugated anti-c′-SMA (mouse, clone 1A4, Sigma-Aldrich), anti-VE-cadherin (rat, clone 11D4.1, BD Phamingen), anti-VE-cadherin (rabbit, clone D87F2, Cell Signaling), anti-PDGFRβ (rat, eBioscience), anti-Ter119 (rat, clone TER-119, eBioscience), anti-caspase-3 (rabbit polyclonal, R&D systems), anti-LYVE-1 (rabbit polyclonal, Angiobio), anti-pan-cytokeratin (mouse, clone AE1/AE3, Abcam), anti-melanin-A (rabbit polyclonal, Abcam), anti-collagen type IV (rabbit polyclonal, Cosmo Bio), or anti-cisplatin modified DNA (rat monoclonal, Abcam). After several washes, the samples were incubated for 2 hr at RT with the following secondary antibodies: FITC-, Cy3-, or Cy5-conjugated anti-hamster IgG (Jackson ImmunoResearch), FITC- or Cy3-conjugated anti-rabbit IgG (Jackson ImmunoResearch), Cy3-conjugated anti-rat IgG (Jackson ImmunoResearch), or Cy3-conjugated anti-mouse IgG (Jackson ImmunoResearch). Goat Fab fragment anti-mouse IgG (Jackson ImmunoResearch) was used to block endogenous mouse IgG to use mouse antibody on mouse tissues. F-actin was stained with acti-stain 555 phalloidin (Cytoskeleton). Nuclei were stained with 4′,6-diamidino-2-phenylindole (DAPI, Invitrogen). Then the samples were mounted with fluorescent mounting medium (DAKO) and immunofluorescent images were acquired using a Zeiss LSM510 confocal microscope (Carl Zeiss). To detect the hypoxic areas in the tumors, Hypoxyprobe-1™ (60 mg/kg, solid pimonidazole hydrochloride, Natural Pharmacia International) was IV injected 90 min before perfusion-fixation. The tumors were then harvested, sectioned, and stained with FITC-conjugated anti-Hypoxyprobe antibody.
# Density measurement of blood vessels, metastasis, hemorrhagic area, leakage area, and perfusion area were performed with ImageJ software (http://rsb.info.nih.gov/ij). […]
# LLC tumor [5] = test: LLC tumor model, cytokeratin+ metastasis to inguinal LNs; type: in vivo, mouse; conditions: CA4P 50 mg/kg
# Procedure: as §2, with “tumor-bearing mice. […]” for “tumor-bearing mice.”
# LLC tumor [6] = test: LLC tumor model, intratumoral necrosis and hemorrhage (H&E); type: in vivo, mouse; conditions: RhoJ-KO mice treated with cisplatin compared to RhoJ-WT mice treated with cisplatin; 2 weeks after treatment
# Procedure: To generate implantation tumor models, suspensions of tumor cells (1×10^6 cells in 100 μl) were SC injected into the dorsal flank of 8 to 10 weeks old mice. Tumor volumes were measured at given time points. Tumor volume was calculated according to the formula, 0.5×A×B^2, where A is the largest diameter of a tumor and B is its perpendicular diameter. Tumor growth rate is defined as increased tumor volume relative to 2 days before. Indicated days later, the mice were anesthetized and tissues were harvested for further analyses. […]
# Density measurement of blood vessels, metastasis, hemorrhagic area, leakage area, and perfusion area were performed with ImageJ software (http://rsb.info.nih.gov/ij). For blood vessel density, CD31^+ area per random 0.42 mm^2 areas was measured in the peri- and intratumoral regions. To determine the amount of blood vessels that express RhoJ, GFP^+&CD31^+ area per CD31^+ area in five random 0.42 mm^2 areas were calculated. In addition, to find the percentage of CD31^+ endothelial cells within RhoJ-GFP expressing cells, the GFP^+&CD31^+ area per total GFP^+ area was also calculated. […] The area of cytokeratin^+ fluorescence was presented as % per total sectioned area of lymph node. […] The extent of hemorrhage was measured as a % of Ter-119^+ area per random 0.24 mm^2 areas. Vascular leakage was quantified as the dextran^+ area % per random 0.42 mm^2.
# LLC tumor [7] = test: Intratumoral cisplatin-modified DNA area in LLC tumor; type: in vivo, mouse; conditions: RhoJ-KO mice compared to RhoJ-WT mice
# Procedure: as §2, with “tumor-bearing mice. […]” for “tumor-bearing mice.”
# [8] = LLC implanted WT mice, en-siJ 2 mg/kg, VEGF-trap 25 mg/kg, 12 days after first treatment
# [9] = RhoJ-KO mice, VEGF-trap 25 mg/kg, 9 days after first treatment
# [10] = RhoJ-WT mice, VEGF-trap 25 mg/kg, 9 days after first treatment
molecule,measurement,setting,value
"COc1ccc(/C=C\c2cc(OC)c(OC)c(OC)c2)cc1OP(=O)(O)O [CA4P, combretastatin-A4-phosphate]",EC tube formation,HUVECs [1],almost complete disruption
same,increase in permeability across the EC monolayer,HUVECs [2],2.9 fold
same,RhoA-ROCK signaling pathway (MLC phosphorylation),"[3]; RhoJ knockdown in combination with CA4P 20 nM, 30 min",further activated
same,additional inhibition in tumor growth,"LLC tumor [4]; LLC, RhoJ-KO mice, CA4P 50 mg/kg IP every 2 days",79%
same,reduction in tumor growth,"LLC tumor [4]; LLC, WT mice, CA4P 50 mg/kg IP every 2 days",18%
same,maintenance of tumor growth response to CA4P,LLC tumor [4]; RhoJ-KO mice,durable response
same,maintenance of tumor growth response to CA4P,LLC tumor [4]; WT mice,not maintained
same,"reduction of vascular density, intratumoral region",LLC tumor vessels; RhoJ-KO mice,60%
same,"reduction of vascular density, peritumoral region",LLC tumor vessels; RhoJ-KO mice,59%
same,"reduction of vascular density, intratumoral region",LLC tumor vessels; RhoJ-WT mice,31%
same,"reduction of vascular density, peritumoral region",LLC tumor vessels; RhoJ-WT mice,13%
same,reduction of metastasis (inguinal LNs),LLC tumor [5]; RhoJ-KO mice,67%
same,reduction of metastasis (inguinal LNs),LLC tumor [5]; RhoJ-WT mice,no reduction
"N.N.[Cl][Pt][Cl] [Cisplatin, cisplatin]",delay of LLC tumor growth,"LLC tumor [4]; RhoJ-KO mice, cisplatin 10 mg/kg IP once every week from tumor volume >100 mm^3",90%
same,decrease of LLC tumor growth,LLC tumor [4]; cisplatin 10 mg/kg IP once every week from tumor volume >100 mm^3,64%
same,increased intratumoral necrosis,LLC tumor [6],80%
same,increase in intratumoral accumulation of cisplatin,LLC tumor [7],~2.0 fold
C[C@@H](N)[C@H]1CC[C@H](C(=O)Nc2ccncc2)CC1 [Y-27632],"RhoA activity, ROCK activity and MLC phosphorylation increased in siJ-ECs, after ROCK inhibitor",[3]; siJ-ECs treated with Y-27632 (up to 20 μM) for 1 hr,almost completely diminished
"VEGF-trap: VEGF decoy receptor; recombinant protein from stable CHO cell lines, sequesters VEGF",delay of LLC tumor growth,"LLC tumor [4]; RhoJ-KO mice, VEGF-trap 25 mg/kg SC, vs Fc",88%
same,decrease of LLC tumor growth,"LLC tumor [4]; VEGF-trap 25 mg/kg SC, vs Fc",47%
same,"decrease of tumor vessel density, intratumoral region",LLC tumor vessels; [8],~50%
same,"decrease of tumor vessel density, peritumoral region",LLC tumor vessels; [8],~45%
same,"reduction of tumor vascular density, intratumoral area",LLC tumor vessels; [9],68%
same,"reduction of tumor vascular density, peritumoral area",LLC tumor vessels; [9],66%
same,"decrease of tumor vascular density, intratumoral area",LLC tumor vessels; [10],49%
same,"decrease of tumor vascular density, peritumoral area",LLC tumor vessels; [10],43%
